We go through 37 molecules from ChEMBL document CHEMBL1150343, “Guanidine and 2-aminoimidazoline aromatic derivatives as alpha2-adrenoceptor antagonists. 2. Exploring alkyl linkers for new antidepressants” (J Med Chem, 2008).

Experiment [1] in a line: Displacement of [3H]RX821002 from alpha2 adrenergic receptor in human brain prefrontal cortex tissue by liquid scintillation spectrometry. Type of experiment: tissue-based. (In general: In a radioligand displacement assay an active substance lowers the binding of a labelled ligand.)
For experiment [2], the system named is Rattus norvegicus. Description: Increase in extracellular noradrenaline levels in Sprague-Dawley rat brain prefrontal cortex at 1 to 100 uM, locally administered by microdialysis by relative to control.
Experiment [3] in a line: Agonist activity at alpha2 adrenergic receptor in human brain prefrontal cortex tissue by [35S]GTPgamma S binding assay. It counts as functional, tissue-based. (In general: GTPγS is a poorly hydrolysed GTP analogue; its binding reports G protein activation.)
A short description of experiment [4]: Agonist activity at alpha2 adrenergic receptor in human brain prefrontal cortex tissue by [35S]GTPgamma S binding assay relative to UK-14304. Type of experiment: functional.
Experiment [5] concerns Rattus norvegicus. Description: Increase in extracellular noradrenaline levels in Sprague-Dawley rat brain prefrontal cortex at 10 mg/kg, ip systematically administered by microdialysis by relative to control. Type of experiment: functional. To be noted: route intraperitoneal.

Each structure is given as a SMILES string.

In general, pKi refers to −log10 of the Ki, conventionally taken in molar units. Read a low pKi as a high Ki. By Emax is commonly meant the greatest response seen or fitted, relative to the assay's reference. With `COC1(C2=NCCN2)COc2ccccc2O1` (stereo not given), the negative logarithm of the Ki (pKi) in experiment [1] came out at 9.04. The same molecule had a maximum response (Emax) in the experiment on Rattus norvegicus [2] of 287%.

`CCc1ccc(NC2=NCCN2)cc1.Cl` had a negative-log Ki (pKi) in experiment [1] of 6.68.

Broadly, the EC50 is the concentration at which the effect is half-maximal. Consider `Cl.c1cc2c(cc1NC1=NCCN1)CCCC2`, for which the pKi in experiment [1] was determined as 7.33. For the same molecule, it took 1.1 µM to reach a half-maximal effect in experiment [3] (EC50). In experiment [4], this molecule showed an Emax of 100%.

`Cl.N=C(N)Nc1ccccc1` registered a negative logarithm of the Ki (pKi) in experiment [1] of 6.19.

Turning to `Cc1ccc(NC(=N)N)cc1.Cl`, the pKi in experiment [1] is 6.53.

With `Cl.c1ccc(NC2=NCCN2)cc1`, the pKi in experiment [1] worked out at 6.48.

Consider `Cc1ccc(NC2=NCCN2)cc1C.Cl`, for which, in experiment [1], the pKi amounted to 7.68. The midpoint of the response in experiment [3], the EC50, lay at 62.9 µM. Also, in experiment [4], the maximum response (Emax) came to 89%.

Turning to `Cl.N=C(N)Nc1ccc2c(c1)CCC2`, the pKi in experiment [1] was 6.51.

`Cl.c1cc2c(cc1NC1=NCCN1)CCC2` showed a pKi in experiment [1] of 8.26. Also, it took 4.4 µM to reach a half-maximal effect in experiment [3] (EC50). The Emax in experiment [4] was found to be 98%.

`Cc1ccc(NC2=NCCN2)cc1.Cl` registered a pKi in experiment [1] of 7.82. Further, the EC50 in experiment [3] came out at 15.2 µM. The molecule also displayed an Emax in experiment [4] of 97%.

Regarding `CCc1ccc(NC(=N)N)cc1.Cl`, in experiment [1], the pKi turned out to be 5.55.

In turn, `Cl.N=C(N)Nc1ccc(Cc2ccccc2)cc1` yielded a negative logarithm of the Ki (pKi) in experiment [1] of 6.38.

Take `Cl.N=C(N)Nc1ccc2c(c1)CCCC2`: the pKi in experiment [1] was 7.11. The molecule further yielded an Activity in the experiment with Rattus norvegicus [5] of 373%. The maximal response (Emax) in the experiment on Rattus norvegicus [2] amounted to 326%.

Take `COc1ccc(NC2=NCCN2)cc1`: the pKi in experiment [1] is on record as 7.77.

`N=C(N)Nc1ccc2c(c1)OCCO2` gave a negative logarithm of the Ki (pKi) in experiment [1] of 8.21.

In turn, `c1cc2c(cc1NC1=NCCN1)OCO2` yielded a negative-log Ki (pKi) in experiment [1] of 7.33.

`N=C(N)Nc1ccc(Oc2ccccc2)cc1`: the pKi in experiment [1] is 6.05.

In turn, `c1ccc(Oc2ccc(NC3=NCCN3)cc2)cc1` had a negative logarithm of the Ki (pKi) in experiment [1] of 6.58.

The molecule `CSc1ccc(NC(=N)N)cc1` had a negative logarithm of the Ki (pKi) in experiment [1] of 6.4.

In experiment [1], `N=C(N)Nc1ccc2c(c1)Cc1ccc(NC(=N)N)cc1C2` had a negative logarithm of the Ki (pKi) of 7.96.

In experiment [1], `Nc1ccc(NC2=NCCN2)cc1` returned a negative logarithm of the Ki (pKi) of 6.92.

In turn, `N=C(N)Nc1ccc(N)cc1` returned a pKi in experiment [1] of 5.58.

As to `N=C(N)Nc1ccc(Nc2ccccc2)cc1`, in experiment [1], the pKi is 6.83.

As for `c1cc2c(cc1NC1=NCCN1)Cc1ccc(NC3=NCCN3)cc1C2`, in experiment [1], the pKi was 7.58.

As to `c1cc2c(cc1NC1=NCCN1)Cc1cc(NC3=NCCN3)ccc1-2`, in experiment [1], the negative-log Ki (pKi) stood at 6.32.

Consider `COc1ccc(NC(=N)N)cc1`, for which the pKi in experiment [1] was 6.39.

As for `N=C(N)Nc1ccc2c(c1)Cc1cc(NC(=N)N)ccc1-2`, the negative-log Ki (pKi) in experiment [1] amounted to 6.12.

The molecule `N=C(N)Nc1ccc(CCc2ccc(NC(=N)N)cc2)cc1` registered a negative-log Ki (pKi) in experiment [1] of 5.88.

Turning to `c1ccc(Nc2ccc(NC3=NCCN3)cc2)cc1`, the negative-log Ki (pKi) in experiment [1] worked out at 6.56.

Consider `c1cc2c(cc1NC1=NCCN1)OCCO2`, for which, in experiment [1], the pKi amounted to 7.85.

Molecule `c1cc(NC2=NCCN2)ccc1CCc1ccc(NC2=NCCN2)cc1` showed a pKi in experiment [1] of 7.02. In the experiment on Rattus norvegicus [5], this molecule yielded an Activity of 156%. Besides, in the experiment on Rattus norvegicus [2], the maximal effect (Emax) was 255%.

Molecule `c1ccc(Sc2ccc(NC3=NCCN3)cc2)cc1` had a pKi in experiment [1] of 6.62.

As for `N=C(N)Nc1ccc2c(c1)OCO2`, the pKi in experiment [1] is given as 6.4.

In experiment [1], `Cl.c1ccc(Cc2ccc(NC3=NCCN3)cc2)cc1` displayed a pKi of 6.85.

For `N=C(N)Nc1ccc(Sc2ccccc2)cc1`, the pKi in experiment [1] worked out at 6.3.

In experiment [1], `CSc1ccc(NC2=NCCN2)cc1` gave a negative logarithm of the Ki (pKi) of 7.07.

For `c1ccc2c(c1)OCC(C1=NCCN1)O2` (stereo not given) [IDAZOXAN], the Emax in the experiment on Rattus norvegicus [2] came to 235%.
